SMILES strings stand for the structures.

For data set [1], the target named is T1, human orexin type 2 receptor (Homo sapiens, UniProt O43614).
T1 construct: human orexin type 2 receptor cDNA was inserted into pcDNA3.1(+) plasmid vector (Invitrogen); expressed in transfected cells
T1 sequence (O43614 1-444): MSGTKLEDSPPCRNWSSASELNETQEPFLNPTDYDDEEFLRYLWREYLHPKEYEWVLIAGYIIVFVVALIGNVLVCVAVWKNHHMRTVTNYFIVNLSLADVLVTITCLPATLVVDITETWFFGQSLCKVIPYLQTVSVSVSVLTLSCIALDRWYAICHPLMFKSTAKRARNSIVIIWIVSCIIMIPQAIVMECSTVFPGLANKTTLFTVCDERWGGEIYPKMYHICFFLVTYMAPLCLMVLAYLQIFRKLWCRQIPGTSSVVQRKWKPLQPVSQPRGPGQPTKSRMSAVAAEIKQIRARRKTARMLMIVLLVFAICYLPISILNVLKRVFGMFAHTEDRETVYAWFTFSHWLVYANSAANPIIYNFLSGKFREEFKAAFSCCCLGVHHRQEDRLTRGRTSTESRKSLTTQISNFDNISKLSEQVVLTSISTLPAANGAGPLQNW
As to the kind of experiment: Measurement of orexin type 2 receptor agonist activity (calcium fluorescence, CHO cells expressing hOX2R). The class given is cell-based. The note with it: test compound 3 μM; CHO cells expressing human OX2 receptor; DMSO = 0%, orexin A (human) = 100%. In outline:
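CHO-dhfr cells stably expressing hOX2R, loaded with Fluo-4 AM in HBSS/20 mM HEPES/0.1% BSA with probenecid, then given test compound. Calcium fluorescence was read for about 2 min 40 sec. Activity (%) was scaled between DMSO (0%) and 10 nM final human orexin A (100%).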

A further data set relates to cynomolgus monkeys. Briefly: Evaluation of wake-promoting effects in cynomolgus monkeys (EEG/EMG/EOG). The data set is classed as in vivo. The conditions noted are these: for response vs control in vivo at 1 mg/kg: Macaca fascicularis, sc, 4 h, s.c., cynomolgus monkeys, administered at ZT12, read-out: Wakefulness time (% of vehicle treatment) (Mean, n = 1-2); for Wakefulness time (% of vehicle treatment): 10 mg/kg, p.o., at ZT12, 4 h after administration, male cynomolgus monkeys, Mean, n = 4-8, cross-over design. Here is the method: The wake-promoting effects were evaluated by measuring the electroencephalogram (EEG), electromyogram (EMG) and electrooculogram (EOG) in cynomolgus monkeys. Under isoflurane anesthesia (1-5%, Pfizer Japan Inc., Tokyo, Japan), male cynomolgus monkeys (3-5 years old, Hamri Co., Ltd., Ibaraki, Japan) were surgically implanted with radio-telemetry transmitters (TL10M3-D70-EEE, Data Sciences International Inc., MN, USA). EEG leads were stereotaxically positioned at the parietal area and secured to the cranium with stainless-steel screws in contact with the dura. […] Bilateral EMG leads were implanted into the back cervical muscles. After the surgery, each monkey was given penicillin (100,000 units/head, i.m., Meiji Seika Pharma Co., Ltd., Tokyo, Japan), buprenorphine (0.02 mg/kg, i.m., Otsuka Pharmaceutical Co., Ltd., Tokyo, Japan) and prednisolone (1 mg/kg, s.c., Kyoritsu Seiyaku Co., Ltd., Tokyo, Japan) daily for one week. After at least a 1-month recovery period in home cages, the monkeys were habituated to the recording chamber (an acrylic cage 60W×55D×75H (cm)) located in a soundproof, electrically shielded room. After we confirmed that monkeys slept sufficiently in the experimental room, cortical EEG, EMG and EOG signals were recorded using Dataquest ART software (Data Sciences International Inc., MN, USA). The signals were semi automatically scored in 20 sec epochs by a sleep scoring system (SleepSign, Kissei Comtec Co., Ltd., Nagano, Japan). This preliminary scoring was visually inspected and corrected if necessary. Test compound (10 mg/kg, Table 4-1) suspended in 0.5% methylcellulose aqueous solution, or vehicle (i.e., 0.5% methylcellulose aqueous solution) was administered orally (p.o.) to monkeys at zeitgeber time 12 (ZT12) in a volume of 5 mL/kg body weight in a cross-over design. EEG, EMG and EOG recordings were performed for 4 h after the compound administration/treatments. The time spent in wakefulness for 4 h after administration (% of vehicle treatment) was calculated by using SleepSign. Test compound (1 mg/kg, Table 4-2) dissolved in a mixed solution comprising 5% DMSO, 5% Cremophor EL, 20% PEG400 and 70% soluplus (1% (w/v)), or vehicle (i.e., a mixed solution comprising 5% DMSO, 5% Cremophor EL, 20% PEG400 and 70% soluplus (1% (w/v))) was administered subcutaneously (s.c.) to monkeys at ZT12 in a volume of 0.5 mL/kg body weight in a pre-post design. EEG, EMG and EOG recordings were performed for 4 h after the compound administration/treatments. The time spent in wakefulness for 4 h after administration (% of vehicle treatment) was calculated by using SleepSign.

A short description of data set [2]: Evaluation of microsome stability in human. The conditions noted are these: human liver microsomes 0.2 mg/mL, 1 μmol/L test compound, pH 7.4, NADPH-generating system, 15 and 30 min; read-out: Clearance (in vitro intrinsic metabolic clearance). The class given is in vitro ADME. How it is done: Human liver microsomes were purchased from Xenotech, LLC (Lenexa, Kans.). An incubation mixture consisted of microsomes in 50 mmol/L KH2PO4—K2HPO4 phosphate buffer (pH 7.4) and 1 μmol/L test compound. The concentration of microsomal protein was 0.2 mg/mL. An NADPH-generating system (5 mmol/L MgCl2, 5 mmol/L glucose-6-phosphate, 0.5 mmol/L beta-NADP+ and 1.5 unit/mL glucose-6-phosphate dehydrogenase) was added to the incubation mixture with a half volume of the reaction mixture to initiate the enzyme reaction. The reaction was terminated 15 and 30 minutes after the initiation of the reaction by mixing the reaction mixture with acetonitrile, followed by centrifugation at 2500 rpm for 10 min. The supernatant was subjected to LC/MS/MS analysis. The metabolic velocity was calculated as the slope of the concentration-time plot. The in vitro intrinsic metabolic clearance was calculated by dividing initial metabolic velocity by the test compound concentration in the incubation mixture.
(In general: Microsomes from liver hold many membrane-bound enzymes, among them those of drug oxidation.)

On to `CCS(=O)(=O)N[C@H]1CCN(C(=O)N2CCC2)[C@H]1Cc1cccc(-c2cccc(F)c2)c1F` [Example 372, N-((2S,3S)-1-(azetidin-1-ylcarbonyl)-2-((2,3′-difluorobiphenyl-3-yl)methyl)pyrrolidin-3-yl)ethanesulfonamide], for which the “OX2R agonist activity (3 μM, %)” value in data set [1] amounted to 98%. Also, the response vs control in vivo at 1 mg/kg in the data set with cynomolgus monkeys was 328%.

With `CN(C)C(=O)N1CC[C@H](NS(=O)(=O)N(C)C)[C@@H]1Cc1cccc(-c2cccc(F)c2)c1F` [Example 377, (2S,3S)-2-((2,3′-difluorobiphenyl-3-yl)methyl)-3-((dimethylsulfamoyl)amino)-N,N-dimethylpyrrolidine-1-carboxamide], in data set [1], the “OX2R agonist activity (3 μM, %)” value was 103%. In the data set with cynomolgus monkeys, the response vs control in vivo at 1 mg/kg came out at 343%.

As to `CCS(=O)(=O)N[C@H]1CCN(C(=O)N(C)OC)[C@H]1Cc1cccc(-c2ccccc2)c1` [Example 407, (2S,3S)-2-(biphenyl-3-ylmethyl)-3-((ethylsulfonyl)amino)-N-methoxy-N-methylpyrrolidine-1-carboxamide], the “OX2R agonist activity (3 μM, %)” value in data set [1] is recorded as 107%. In addition, in the data set on cynomolgus monkeys, the response vs control in vivo at 1 mg/kg was determined as 391%.

As to `CC(C)(O)C(=O)N1CC[C@H](NS(=O)(=O)C2(F)CC2)[C@@H]1Cc1cccc(-c2cccc(F)c2)c1F` [Example 450, N-[(2S,3S)-2-[(2,3′-difluoro[1,1′-biphenyl]-3-yl)methyl]-1-(2-hydroxy-2-methylpropanoyl)pyrrolidin-3-yl]-1-fluorocyclopropane-1-sulfonamide], the “OX2R agonist activity (3 μM, %)” value in data set [1] turned out to be 107%. Also, the microsomal CLint at 1 μmol/L in data set [2] turned out to be 78 µL/min/mg. Further, the response vs control in vivo at 1 mg/kg in the data set on cynomolgus monkeys is 243%.

Take `CCS(=O)(=O)N[C@H]1CCN(C(=O)N2CCC2)[C@H]1Cc1cccc(-c2ccccc2)c1F` [Example 456, N-{(2S,3S)-1-(azetidine-1-carbonyl)-2-[(2-fluoro[1,1′-biphenyl]-3-yl)methyl]pyrrolidin-3-yl}ethanesulfonamide]: the “OX2R agonist activity (3 μM, %)” value in data set [1] stood at 104%. Further, the response vs control in vivo at 1 mg/kg with cynomolgus monkeys stood at 446%.

Turning to `CCS(=O)(=O)N[C@H]1CCN(C(=O)N(C)OC)[C@H]1Cc1cccc(-c2cccc(F)c2)c1` [Example 474, (2S,3S)-3-[(ethanesulfonyl)amino]-2-[(3′-fluoro[1,1′-biphenyl]-3-yl)methyl]-N-methoxy-N-methylpyrro-lidine-1-carboxamide], the “OX2R agonist activity (3 μM, %)” value in data set [1] amounted to 109%. Further, the response vs control in vivo at 1 mg/kg with cynomolgus monkeys amounted to 329%.

As for `CN(C)C(=O)N1CC[C@H](NS(=O)(=O)N(C)C)[C@@H]1Cc1cccc(-c2ccccc2)c1F` [Example 475, (2S,3S)-3-[(dimethylsulfamoyl)amino]-2-[(2-fluoro[1,1′-biphenyl]-3-yl)methyl]-N,N-dimethyl-pyrrolidine-1-carboxamide], the “OX2R agonist activity (3 μM, %)” value in data set [1] was found to be 104%. For the same molecule, the response vs control in vivo at 1 mg/kg with cynomolgus monkeys was 410%.

As to `CN(C)C(=O)N1CC[C@H](NS(=O)(=O)N(C)C)[C@@H]1Cc1cccc(-c2cc(F)cc(F)c2)c1F` [Example 476, (2S,3S)-3-[(dimethylsulfamoyl)amino]-N,N-dimethyl-2-[(2,3′,5′-trifluoro[1,1′-biphenyl]-3-yl)methyl]pyrrolidine-1-carboxamide], the “OX2R agonist activity (3 μM, %)” value in data set [1] is 103%. Also, the response vs control in vivo at 1 mg/kg with cynomolgus monkeys amounted to 392%.

For the molecule `CCS(=O)(=O)N[C@H]1CCN(C(=O)N(C)OC)[C@H]1Cc1cccc(-c2cc(F)cc(F)c2)c1` [Example 477, (2S,3S)-2-[(3′,5′-difluoro[1,1′-biphenyl]-3-yl)methyl]-3-[(ethane-sulfonyl)amino]-N-methoxy-N-methylpyrrolidine-1-carboxamide], the “OX2R agonist activity (3 μM, %)” value in data set [1] is 106%. Besides, the response vs control in vivo at 1 mg/kg in the data set on cynomolgus monkeys is 383%.

With `CCS(=O)(=O)N[C@H]1CCN(C(=O)C(C)(C)O)[C@H]1Cc1cccc(-c2cccc(F)c2)c1F` [Example 482, N-((2S,3S)-2-((2,3′-difluorobi-phenyl-3-yl)methyl)-1-(2-hydroxy-2-methylpropanoyl)pyrrolidin-3-yl)ethanesulfonamide], the “OX2R agonist activity (3 μM, %)” value in data set [1] turned out to be 110%. For the same molecule, the microsomal CLint at 1 μmol/L in data set [2] turned out to be 26 µL/min/mg. Moreover, the “Wakefulness time (% of vehicle treatment)” value in the data set on cynomolgus monkeys is reported as 280.82 % of vehicle treatment.

For `CC(C)(O)C(=O)N1CC[C@H](NS(C)(=O)=O)[C@@H]1Cc1cccc(-c2cc(F)cc(F)c2)c1F` [Example 483, N-((2S,3S)-1-(2-hydroxy-2-methyl-propanoyl)-2-((2,3′,5′-trifluorobi-phenyl-3-yl)methyl)pyrrolidin-3-yl)methanesulfonamide], the “OX2R agonist activity (3 μM, %)” value in data set [1] is 103%. In addition, the microsomal CLint at 1 μmol/L in data set [2] was 6 µL/min/mg. For the same molecule, the “Wakefulness time (% of vehicle treatment)” value in the data set with cynomolgus monkeys is listed as 359.35 % of vehicle treatment.

For `CCS(=O)(=O)N[C@H]1CCN(C(=O)C(C)(C)O)[C@H]1Cc1cccc(-c2cc(F)cc(F)c2)c1F` [Example 484, N-((2S,3S)-1-(2-hydroxy-2-methyl-propanoyl)-2-((2,3′,5′-trifluorobi-phenyl-3-yl)methyl)pyrrolidin-3-yl)ethanesulfonamide], the “OX2R agonist activity (3 μM, %)” value in data set [1] turned out to be 112%. In data set [2], the microsomal CLint at 1 μmol/L turned out to be 23 µL/min/mg. Also, in the data set on cynomolgus monkeys, the “Wakefulness time (% of vehicle treatment)” value is recorded as 492.32 % of vehicle treatment.

Turning to `CS(=O)(=O)N[C@H]1CCN(C(=O)N2CCC2)[C@H]1Cc1cccc(-c2cccc(F)c2)c1F` [Example 485, N-((2S,3S)-1-(azetidin-1-ylcarbonyl)-2-((2,3′-difluorobiphenyl-3-yl)methyl)pyrrolidin-3-yl)methanesulfonamide], the “OX2R agonist activity (3 μM, %)” value in data set [1] was determined as 104%. In the data set with cynomolgus monkeys, the response vs control in vivo at 1 mg/kg was 449%.

In the case of `CCS(=O)(=O)N[C@H]1CCN(C(=O)N(C)C)[C@H]1Cc1cccc(-c2cccc(F)c2)c1F` [Example 486, (2S,3S)-2-((2,3′-difluorobiphenyl-3-yl)methyl)-3-((ethylsulfonyl)amino)-N,N-dimethylpyrrolidine-1-carboxa-mide], the “OX2R agonist activity (3 μM, %)” value in data set [1] is listed as 102%. In addition, the response vs control in vivo at 1 mg/kg in the data set with cynomolgus monkeys came out at 328%.

As for `CCS(=O)(=O)N[C@H]1CCN(C(=O)N(C)C)[C@H]1Cc1cccc(-c2cc(F)cc(F)c2)c1F` [Example 487, (2S,3S)-3-((ethylsulfonyl)amino)-N,N-dimethyl-2-((2,3′,5′-trifluorobi-phenyl-3-yl)methyl)pyrrolidine-1-carboxamide], the “OX2R agonist activity (3 μM, %)” value in data set [1] came to 104%. The response vs control in vivo at 1 mg/kg with cynomolgus monkeys was determined as 355%.

The values are drawn from patent US20200207734A1, “HETEROCYCLIC COMPOUND AND USE THEREOF” (Takeda Pharmaceutical Company Limited, priority 2017, published 2020).
